Source: publication PMC7023430, “4-Aminobenzoic Acid Derivatives: Converting Folate Precursor to Antimicrobial and Cytotoxic Agents” (Biomolecules, 2019)
In brackets after ≈: the same amount, converted by molar mass. Like-named read-outs stand apart in the source and are kept apart here.

Key:
[1] = test system: Mycobacterium avium 330/88; assay: Antimycobacterial micromethod in Šula's medium, M. avium; type: cell-based
[2] = test system: Trichosporon asahii 1188; assay: Antifungal microdilution broth method, T. asahii; type: cell-based
Protocol: (§1) The antifungal properties were evaluated against five yeast strains, namely: Candida albicans ATCC 44859, Candida tropicalis 156, Candida krusei […], Candida glabrata 20/I, Trichosporon […] 1188 and three strains of filamentous fungi: Aspergillus fumigatus 231, Lichtheimia corymbifera 272, and Trichophyton interdigitale 445. A microdilution broth method was performed according to EUCAST II, III instructions with slight modifications. Briefly, tested compounds were dissolved in DMSO and diluted in a twofold manner with RPMI-1640 medium with L-glutamine, supplemented with 2% glucose (w/v) and buffered to pH 7.0 with 3 morpholinopropane-1-sulfonic acid (all components were purchased from Sigma-Aldrich, USA). […] Positive controls consisted of test microbe solely, while negative controls consisted of medium and DMSO. Internal quality control was included too. Visual inspection was used for MIC endpoints evaluation. The experiments were conducted in duplicates. For the results to be valid, the difference in MIC determined from two parallel measurements must not be greater than one step on the dilution scale. PABA and triazole antimycotic drug fluconazole were involved as the reference compounds.

[3] = test system: Candida albicans ATCC 44859; assay: Antifungal microdilution broth method, C. albicans; type: cell-based
Protocol: as §1

[4] = test system: Pseudomonas aeruginosa ATCC 27853, CCM 3955; assay: Antibacterial microdilution broth method, P. aeruginosa; type: cell-based; conditions: Pseudomonas aeruginosa, P. aeruginosa
[5] = test system: Enterococcus faecalis ATCC 29212, CCM 4224; assay: Antibacterial microdilution broth method, E. faecalis; type: cell-based; conditions: Enterococcus faecalis
[6] = test system: Candida glabrata 20/I; assay: Antifungal microdilution broth method, C. glabrata; type: cell-based; conditions: Nakaseomyces glabratus
Protocol: as §1

[7] = test system: Trichophyton interdigitale 445; assay: Antifungal microdilution broth method, T. interdigitale; type: cell-based
Protocol: as §1

[8] = test system: Klebsiella pneumoniae D 11750/08; assay: Antibacterial microdilution broth method, K. pneumoniae; conditions: K. pneumoniae D 11750/08; for MIC KP 24 h: 24 h incubation; for MIC KP 48 h: 48 h incubation
[9] = test system: four Gram-positive and four Gram-negative strains; assay: Antibacterial activity; type: cell-based; conditions: statement over the bacterial panel; time not stated
[10] = test system: Staphylococcus epidermidis H 6966/08; assay: Antibacterial microdilution broth method, S. epidermidis; type: cell-based; conditions: Staphylococcus epidermidis, H6966/08, S. epidermidis
[11] = test system: eight fungal strains; assay: Antifungal activity; type: cell-based; conditions: statement over the fungal panel; time not stated
Protocol: as §1

[12] = test system: M. kansasii 6509/96 (clinical isolate); assay: Antimycobacterial micromethod in Šula's medium, M. kansasii 6509/96; type: cell-based; conditions: Mycobacterium kansasii
[13] = test system: Candida krusei E28; assay: Antifungal microdilution broth method, C. krusei; type: cell-based; conditions: Pichia kudriavzevii
Protocol: as §1

[14] = test system: Lichtheimia corymbifera 272; assay: Antifungal microdilution broth method, L. corymbifera; type: cell-based
Protocol: as §1

[15] = test system: Escherichia coli ATCC 25922, CCM 3954; assay: Antibacterial microdilution broth method, E. coli; type: cell-based; conditions: Escherichia coli
[16] = test system: ESBL-positive Klebsiella pneumoniae J 14368/08
[17] = test system: Staphylococcus aureus ATCC 29213, CCM 4223; assay: Antibacterial microdilution broth method, S. aureus; type: cell-based
[18] = test system: methicillin-resistant Staphylococcus aureus ATCC 43300, CCM 4750 (MRSA); assay: Antibacterial microdilution broth method, MRSA; type: cell-based; conditions: Staphylococcus aureus
[19] = test system: Mycobacterium kansasii 235/80; assay: Antimycobacterial micromethod in Šula's medium, M. kansasii 235/80; type: cell-based
[20] = test system: Mycobacterium tuberculosis H37Rv (331/88); assay: Antimycobacterial micromethod in Šula's medium, M. tuberculosis; type: cell-based
[21] = test system: Aspergillus fumigatus 231; assay: Antifungal microdilution broth method, A. fumigatus; type: cell-based
Protocol: as §1

[22] = test system: Candida tropicalis 156; assay: Antifungal microdilution broth method, C. tropicalis; type: cell-based
Protocol: as §1

[23] = test system: Mtb. 331/88 and three non-tuberculous mycobacterial strains; assay: Antimycobacterial activity; type: cell-based; conditions: statement over four mycobacterial strains; time not stated
[24] = test system: staphylococci; conditions: according to EUCAST ref 33; cited from earlier work
[25] = 330/88, 336 h, 14 days incubation at 37 °C, read-out: MIC M. avium 330/88 14 d
[26] = 330/88, 504 h, 21 days incubation at 37 °C, read-out: MIC M. avium 330/88 21 d
[27] = ATCC44859, 24 h, read-out: MIC CA 24 h
[28] = ATCC44859, 48 h, read-out: MIC CA 48 h
[29] = 24 h incubation, read-out: MIC PA 24 h
[30] = 48 h incubation, read-out: MIC PA 48 h
[31] = 24 h incubation, read-out: MIC EF 24 h
[32] = 48 h incubation, read-out: MIC EF 48 h
[33] = 24 h incubation, read-out: MIC SE 24 h
[34] = 48 h incubation, read-out: MIC SE 48 h
[35] = 168 h, 7 days incubation at 37 °C, read-out: MIC M. kansasii 6509/96 7 d
[36] = 336 h, 14 days incubation at 37 °C, read-out: MIC M. kansasii 6509/96 14 d
[37] = 504 h, 21 days incubation at 37 °C, read-out: MIC M. kansasii 6509/96 21 d
[38] = 24 h incubation, read-out: MIC EC 24 h
[39] = 48 h incubation, read-out: MIC EC 48 h
[40] = 24 h incubation, read-out: MIC SA 24 h
[41] = 48 h incubation, read-out: MIC SA 48 h
[42] = 24 h incubation, read-out: MIC MRSA 24 h
[43] = 48 h incubation, read-out: MIC MRSA 48 h
[44] = 235/80, 168 h, 7 days incubation at 37 °C, read-out: MIC M. kansasii 235/80 7 d
[45] = 235/80, 336 h, 14 days incubation at 37 °C, read-out: MIC M. kansasii 235/80 14 d
[46] = 235/80, 504 h, 21 days incubation at 37 °C, read-out: MIC M. kansasii 235/80 21 d
[47] = 336 h, 14 days incubation at 37 °C, read-out: MIC Mtb. 331/88 14 d
[48] = 504 h, 21 days incubation at 37 °C, read-out: MIC Mtb. 331/88 21 d

## COc1ccccc1C=Nc1ccc(C(=O)O)cc1 [1s, 4-[(2-Methoxybenzylidene)amino]benzoic acid]
[1]; [25]
  MIC: > 1000 µM
[1]; [26]
  MIC: > 1000 µM
[2]; 24 h, read-out: MIC TA 24 h
  MIC: > 500 µM
[2]; 48 h, read-out: MIC TA 48 h
  MIC: > 500 µM
[3]; [27]
  MIC: > 500 µM
[3]; [28]
  MIC: > 500 µM
[4]; [29]
  MIC: > 500 µM
[4]; [30]
  MIC: > 500 µM
[5]; [31]
  MIC: > 500 µM
[5]; [32]
  MIC: > 500 µM
[6]; 24 h, read-out: MIC CG 24 h
  MIC: > 500 µM
[6]; 48 h, read-out: MIC CG 48 h
  MIC: > 500 µM
[7]; 72 h, read-out: MIC TI 72 h
  MIC: > 500 µM
[7]; 120 h, read-out: MIC TI 120 h
  MIC: > 500 µM
[8]
  MIC KP 24 h: >500 µM
  MIC KP 48 h: >500 µM
[9]
  MIC, antibacterial activity: avoided any antibacterial action
[10]; [33]
  MIC: > 500 µM
[10]; [34]
  MIC: > 500 µM
[11]
  MIC, antifungal activity: no antimycotic potency
[12]; [35]
  MIC: 1000 µM (≈ 255 µg/mL)
[12]; [36]
  MIC: 1000 µM (≈ 255 µg/mL)
[12]; [37]
  MIC: 1000 µM (≈ 255 µg/mL)
[13]; 24 h, read-out: MIC CK 24 h
  MIC: > 500 µM
[13]; 48 h, read-out: MIC CK 48 h
  MIC: > 500 µM
[14]; 24 h, read-out: MIC LC 24 h
  MIC: > 500 µM
[14]; 48 h, read-out: MIC LC 48 h
  MIC: > 500 µM
[15]; [38]
  MIC: > 500 µM
[15]; [39]
  MIC: > 500 µM
[16]
  MIC KP-E 24 h: >500 µM
  MIC KP-E 48 h: >500 µM
[17]; [40]
  MIC: > 500 µM
[17]; [41]
  MIC: > 500 µM
[18]; [42]
  MIC: > 500 µM
[18]; [43]
  MIC: > 500 µM
[19]; [44]
  MIC: 1000 µM (≈ 255 µg/mL)
[19]; [45]
  MIC: 1000 µM (≈ 255 µg/mL)
[19]; [46]
  MIC: > 1000 µM
[20]; [47]
  MIC: 1000 µM (≈ 255 µg/mL)
[20]; [48]
  MIC: 1000 µM (≈ 255 µg/mL)
[21]; 24 h, read-out: MIC AF 24 h
  MIC: > 500 µM
[21]; 48 h, read-out: MIC AF 48 h
  MIC: > 500 µM
[22]; 24 h, read-out: MIC CT 24 h
  MIC: > 500 µM
[22]; 48 h, read-out: MIC CT 48 h
  MIC: > 500 µM
[23]
  MIC, antimycobacterial activity: only negligible antimycobacterial activity

## O=C(O)c1ccc(N=Cc2ccc(O)cc2)cc1 [1t, 4-[(4-Hydroxybenzylidene)amino]benzoic acid]
[1]; [25]
  MIC: 1000 µM (≈ 241 µg/mL)
[1]; [26]
  MIC: > 1000 µM
[2]; 24 h, read-out: MIC TA 24 h
  MIC: > 500 µM
[2]; 48 h, read-out: MIC TA 48 h
  MIC: > 500 µM
[3]; [27]
  MIC: > 500 µM
[3]; [28]
  MIC: > 500 µM
[4]; [29]
  MIC: > 500 µM
[4]; [30]
  MIC: > 500 µM
[5]; [31]
  MIC: > 500 µM
[5]; [32]
  MIC: > 500 µM
[6]; 24 h, read-out: MIC CG 24 h
  MIC: > 500 µM
[6]; 48 h, read-out: MIC CG 48 h
  MIC: > 500 µM
[7]; 72 h, read-out: MIC TI 72 h
  MIC: > 500 µM
[7]; 120 h, read-out: MIC TI 120 h
  MIC: > 500 µM
[8]
  MIC KP 24 h: >500 µM
  MIC KP 48 h: >500 µM
[9]
  MIC, antibacterial activity: avoided any antibacterial action
[10]; [33]
  MIC: > 500 µM
[10]; [34]
  MIC: > 500 µM
[11]
  MIC, antifungal activity: no antimycotic potency
[12]; [35]
  MIC: 1000 µM (≈ 241 µg/mL)
[12]; [36]
  MIC: 1000 µM (≈ 241 µg/mL)
[12]; [37]
  MIC: 1000 µM (≈ 241 µg/mL)
[13]; 24 h, read-out: MIC CK 24 h
  MIC: > 500 µM
[13]; 48 h, read-out: MIC CK 48 h
  MIC: > 500 µM
[14]; 24 h, read-out: MIC LC 24 h
  MIC: > 500 µM
[14]; 48 h, read-out: MIC LC 48 h
  MIC: > 500 µM
[15]; [38]
  MIC: > 500 µM
[15]; [39]
  MIC: > 500 µM
[16]
  MIC KP-E 24 h: >500 µM
  MIC KP-E 48 h: >500 µM
[17]; [40]
  MIC: > 500 µM
[17]; [41]
  MIC: > 500 µM
[18]; [42]
  MIC: > 500 µM
[18]; [43]
  MIC: > 500 µM
[19]; [44]
  MIC: 1000 µM (≈ 241 µg/mL)
[19]; [45]
  MIC: 1000 µM (≈ 241 µg/mL)
[19]; [46]
  MIC: > 1000 µM
[20]; [47]
  MIC: 1000 µM (≈ 241 µg/mL)
[20]; [48]
  MIC: 1000 µM (≈ 241 µg/mL)
[21]; 24 h, read-out: MIC AF 24 h
  MIC: > 500 µM
[21]; 48 h, read-out: MIC AF 48 h
  MIC: > 500 µM
[22]; 24 h, read-out: MIC CT 24 h
  MIC: > 500 µM
[22]; 48 h, read-out: MIC CT 48 h
  MIC: > 500 µM
[23]
  MIC, antimycobacterial activity: only negligible antimycobacterial activity

## O=C1CN(/N=C/c2ccc([N+](=O)[O-])o2)C(=O)N1 [nitrofurantoin]
[24]
  breakpoint for staphylococci: 32 to 64 µg/mL
